Consider 8 molecules from PubChem BioAssay (NCI).

Structures are written as SMILES. Values joined by “and” are separate entries in the source; they are usually repeats but may differ in a detail not shown here. Identical values can stand only once.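 96-well plates; 48 h exposure; 5 concentrations. Endpoints by linear interpolation between flanking doses. Not reached: highest tested concentration assigned. At the GI50, growth is halved. The concentration for full growth arrest is given as TGI.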 Where only a bound is given, the exact number is not on record here.

Among the test systems are A549 NSCLC; HCC-2998 colon; KM12 colon; M14 melanoma; OVCAR-8 ovarian; PC-3 prostate; SF-268 CNS; U251 CNS; UO-31 renal; NCI-H460 lung.
Holding throughout (assay): NCI tumour cell line growth inhibition, 48 h

Regarding `N#CC1=C(N)Oc2c(sc3c(Br)cccc23)C1c1ccc(Cl)cc1` (centres undefined), the GI50 in the experiment with A549 NSCLC is 1160 nM; with HCC-2998 colon, 1570 nM; in the experiment with KM12 colon, 389 nM; in the experiment with M14 melanoma, 450 nM; in the experiment on OVCAR-8 ovarian, 1710 nM; in the experiment with PC-3 prostate it was 560 nM. For the same molecule, the GI50 is 917 nM with SF-268 CNS, 563 nM in the experiment on U251 CNS and 614 nM in the experiment on UO-31 renal. For the same molecule, the TGI came to 3520 nM with A549 NSCLC; 6290 nM in the experiment with HCC-2998 colon; 6200 nM in the experiment with KM12 colon; 2650 nM in the experiment on M14 melanoma; 8290 nM with OVCAR-8 ovarian; 5550 nM with PC-3 prostate. Besides, the values for the TGI in the experiment with SF-268 CNS, in the experiment with U251 CNS and in the experiment on UO-31 renal were 7620 nM, 2360 nM and 2540 nM, respectively.

Consider `CN(C)CCS(=O)(=O)Nc1cc(-c2ccc3ncc(C#N)c(Nc4ccc(F)c(Cl)c4)c3c2)cnc1Cl`, for which the GI50 was 1140 nM in the experiment with A549 NSCLC; 198 nM with HCC-2998 colon; 255 nM in the experiment on M14 melanoma; 612 nM in the experiment with NCI-H460 lung; 387 nM in the experiment with OVCAR-8 ovarian; 227 nM in the experiment with PC-3 prostate. Also, the figures for the GI50 with SF-268 CNS, in the experiment on U251 CNS and in the experiment on UO-31 renal were 122 nM, 150 nM and 188 nM, respectively. In addition, the TGI in the experiment on A549 NSCLC is 4790 nM; in the experiment with HCC-2998 colon, 393 nM; with M14 melanoma it was 1270 nM; in the experiment with NCI-H460 lung, 3720 nM; in the experiment with OVCAR-8 ovarian it was > 32600 nM; with PC-3 prostate, 1720 nM. Further, the TGI with SF-268 CNS was found to be 692 nM; with U251 CNS, 746 nM; in the experiment on UO-31 renal it was 1290 nM.

As to `CCCCCCCCCCCCCCCCN(CC)CC`, the GI50 is 1770 nM with HCC-2998 colon; 1870 nM with KM12 colon; 1940 nM with M14 melanoma; 1920 nM with NCI-H460 lung; 2160 nM with PC-3 prostate; 2640 nM with SF-268 CNS. Moreover, the GI50 in the experiment on UO-31 renal was 1600 nM. For the same molecule, the TGI in the experiment on HCC-2998 colon came out at 3300 nM; in the experiment with KM12 colon it was 3590 nM; in the experiment with M14 melanoma it was 3840 nM; in the experiment on NCI-H460 lung it was 3560 nM; in the experiment with PC-3 prostate it was 5970 nM; with SF-268 CNS, 8310 nM. The molecule also yielded a TGI in the experiment on UO-31 renal of 3470 nM.

Take `COC(=O)[C@@H](C)C[C@H](Cc1ccccc1)NC(=O)c1csc([C@@H](C[C@H](C(C)C)N(C)C(=O)[C@@H](NC(=O)[C@H]2CCCN2C)C2CC2)OC(C)=O)n1`: the GI50 was 6.64 nM and 2.5 nM with A549 NSCLC; 4.31 nM and 2.5 nM in the experiment on HCC-2998 colon; 2.22 nM and 2.5 nM in the experiment on KM12 colon; 2.38 nM and 2.5 nM in the experiment on NCI-H460 lung; 2.62 nM and 2.5 nM in the experiment with OVCAR-8 ovarian; 0.545 nM and 2.5 nM in the experiment on PC-3 prostate. In addition, the GI50 in the experiment with SF-268 CNS was 8.71 nM and 2.5 nM; with U251 CNS, 2.87 nM and 2.5 nM. In addition, the TGI in the experiment on A549 NSCLC, in the experiment on HCC-2998 colon, in the experiment on KM12 colon, in the experiment on NCI-H460 lung, in the experiment on OVCAR-8 ovarian and in the experiment with PC-3 prostate was > 25000 nM in each case. The TGI in the experiment with SF-268 CNS, in the experiment on U251 CNS and in the experiment with UO-31 renal was > 25000 nM in each case.

Turning to `COc1cc2nc3cc([N+](=O)[O-])ccc3c(NCCNCC(C)O)c2cc1OC` (centres undefined), the GI50 with A549 NSCLC was 1430 nM; in the experiment with KM12 colon, 619 nM; with M14 melanoma, 1250 nM; with NCI-H460 lung, 366 nM; in the experiment on OVCAR-8 ovarian, 587 nM; in the experiment with PC-3 prostate it was 512 nM. Besides, the GI50 was 469 nM in the experiment with SF-268 CNS, 442 nM in the experiment with U251 CNS and 1670 nM with UO-31 renal. For the same molecule, the TGI in the experiment with A549 NSCLC turned out to be 5130 nM; in the experiment on KM12 colon, 2870 nM; in the experiment with M14 melanoma, 2960 nM; in the experiment with NCI-H460 lung, 1600 nM; in the experiment with OVCAR-8 ovarian it was 3130 nM; in the experiment on PC-3 prostate, 2460 nM. Moreover, the TGI was 2460 nM in the experiment on SF-268 CNS, 2260 nM in the experiment with U251 CNS and 5840 nM in the experiment on UO-31 renal.

As for `C=CCOC(=O)Nc1cccn([C@H](CC(C)C)C(=O)NCCC(C)C)c1=O`, the GI50 in the experiment on A549 NSCLC was 78500 nM; with KM12 colon, 92800 nM; in the experiment on M14 melanoma, > 100000 nM; with NCI-H460 lung, > 100000 nM; in the experiment with OVCAR-8 ovarian, > 100000 nM; in the experiment on PC-3 prostate, 49700 nM. Moreover, the GI50 in the experiment on SF-268 CNS is 84800 nM; with U251 CNS it was 92300 nM; in the experiment on UO-31 renal, 27500 nM. Also, the TGI with A549 NSCLC, with KM12 colon, with M14 melanoma, in the experiment with NCI-H460 lung, in the experiment with OVCAR-8 ovarian and in the experiment on PC-3 prostate was > 100000 nM throughout. Also, the TGI in the experiment on SF-268 CNS, with U251 CNS and in the experiment on UO-31 renal was > 100000 nM in each case.

`CN(C)CCNC(=O)c1ccc2oc3cc4ccccc4c(=O)n3c2c1`: the GI50 in the experiment with A549 NSCLC was 26200 nM; with KM12 colon, 10500 nM; in the experiment with M14 melanoma, 52000 nM; in the experiment with NCI-H460 lung, 42200 nM; in the experiment with OVCAR-8 ovarian, 23100 nM; in the experiment with PC-3 prostate, 61600 nM. The GI50 with SF-268 CNS was 32600 nM; in the experiment with U251 CNS, 34300 nM; in the experiment with UO-31 renal it was 19600 nM. For the same molecule, the TGI is 97000 nM with A549 NSCLC; 77800 nM in the experiment with KM12 colon; > 100000 nM in the experiment on M14 melanoma; > 100000 nM with NCI-H460 lung; 76200 nM in the experiment with OVCAR-8 ovarian; > 100000 nM with PC-3 prostate. In addition, the values for the TGI in the experiment on SF-268 CNS, with U251 CNS and in the experiment on UO-31 renal were 93200 nM, > 100000 nM and 47500 nM, respectively.

For `O=C(O)c1cn(C2CC2)c2cc(N3CCN(Cc4c(O)ccc5ccccc45)CC3)c(F)cc2c1=O`, the GI50 was 4030 nM in the experiment with A549 NSCLC; > 100000 nM with HCC-2998 colon; 9180 nM with KM12 colon; 3950 nM with M14 melanoma; 4610 nM in the experiment on OVCAR-8 ovarian; 3750 nM with PC-3 prostate. In addition, the GI50 in the experiment with SF-268 CNS is 56800 nM; with U251 CNS it was 19000 nM; in the experiment on UO-31 renal, 3710 nM. In addition, the TGI in the experiment with A549 NSCLC, with HCC-2998 colon, with KM12 colon, in the experiment on M14 melanoma, in the experiment with OVCAR-8 ovarian and with PC-3 prostate was > 100000 nM throughout. In addition, the TGI with SF-268 CNS, in the experiment with U251 CNS and in the experiment on UO-31 renal was > 100000 nM throughout.
